IC50 data for eight compounds are collected here from ChEMBL document CHEMBL1151314, “Phenylethanoid glycosides from Digitalis purpurea and Penstemon linarioides with PKCalpha-inhibitory activity” (J Nat Prod, 1998).

For this test, the target named is Protein kinase C alpha type (Homo sapiens, UniProt P17252). The test can be described thus: Inhibition of human recombinant PKCalpha.
In general, IC50 refers to the concentration needed to halve the response being measured. Turning to `C[C@@H]1O[C@@H](OC[C@H]2O[C@@H](OCCc3ccc(O)c(O)c3)[C@H](O)[C@@H](O[C@@H]3O[C@@H](C)[C@H](O)[C@@H](O)[C@H]3O)[C@@H]2OC(=O)/C=C/c2ccc(O)c(O)c2)[C@H](O)[C@H](O)[C@H]1O` [POLIUMOSIDE], the IC50 is 24.4 µM.

For `O=C(/C=C/c1ccc(O)c(O)c1)O[C@H]1[C@H](O)[C@@H](O)[C@H](OCCc2ccc(O)c(O)c2)O[C@@H]1CO` [CALCEOLARIOSIDE A], the IC50 worked out at 0.6 µM. For `C[C@@H]1O[C@@H](O[C@@H]2[C@@H](O)[C@H](OCCc3ccc(O)c(O)c3)O[C@H](CO)[C@H]2OC(=O)/C=C/c2ccc(O)c(O)c2)[C@H](O)[C@H](O)[C@H]1O` [ACETOSIDE], the IC50 amounted to 9.3 µM. Regarding `O=C(/C=C/c1ccc(O)c(O)c1)OC[C@H]1O[C@@H](OCCc2ccc(O)c(O)c2)[C@H](O)[C@@H](O[C@@H]2O[C@H](CO)[C@@H](O)[C@H](O)[C@H]2O)[C@@H]1O` [PLANTAINOSIDE D], the IC50 turned out to be 14.8 µM. With `COc1ccc(CCO[C@@H]2O[C@H](CO[C@@H]3O[C@@H](C)[C@H](O)[C@@H](O)[C@H]3O)[C@@H](OC(=O)/C=C/c3ccc(O)c(OC)c3)[C@H](O[C@@H]3O[C@@H](C)[C@H](O)[C@@H](O)[C@H]3O)[C@H]2O)cc1O`, the IC50 was found to be 125 µM.

Turning to `COc1cc(/C=C/C(=O)O[C@H]2[C@H](O[C@@H]3O[C@@H](C)[C@H](O)[C@@H](O)[C@H]3O)[C@@H](O)[C@H](OCCc3ccc(O)c(O)c3)O[C@@H]2CO)ccc1O` [LEUCOSCEPTOSIDE A], the IC50 is 19 µM.

As to `C[C@@H]1O[C@@H](OC[C@H]2O[C@@H](OCCc3ccc(O)c(O)c3)[C@H](O)[C@@H](O)[C@@H]2OC(=O)/C=C/c2ccc(O)c(O)c2)[C@H](O)[C@H](O)[C@H]1O` [FORSYTHIASIDE], the IC50 came to 1.9 µM.

On to `O=C(/C=C/c1ccc(O)c(O)c1)OC[C@H]1O[C@@H](OCCc2ccc(O)c(O)c2)[C@H](O)[C@@H](O)[C@@H]1O` [CALCEOLARIOSIDE B], for which the IC50 came to 4.6 µM.
